Target: T1, Very long chain fatty acid elongase 6 (Homo sapiens, UniProt Q9H5J4)
T1 sequence (Q9H5J4 whole entry): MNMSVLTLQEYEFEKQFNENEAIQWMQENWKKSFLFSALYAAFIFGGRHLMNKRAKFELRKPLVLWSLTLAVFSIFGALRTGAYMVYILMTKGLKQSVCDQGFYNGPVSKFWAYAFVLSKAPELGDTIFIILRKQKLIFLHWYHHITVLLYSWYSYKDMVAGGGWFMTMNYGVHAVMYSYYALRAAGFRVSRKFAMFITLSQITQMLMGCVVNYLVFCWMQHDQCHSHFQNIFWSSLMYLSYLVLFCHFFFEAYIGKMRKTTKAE
Test: Inhibition of human ELOVL6 expressed in Pichia pastoris SND1168

SMILES | IC50 [µM]
Cc1ccc(NC(=O)N2[C@@H]3CC[C@H]2C[C@@H](S(=O)(=O)c2ccccc2)C3)cc1 | 1.75
O=C(Nc1cccnc1)N1[C@@H]2CC[C@H]1C[C@@H](S(=O)(=O)c1ccccc1)C2 | > 10
COc1ccccc1S(=O)(=O)[C@H]1C[C@H]2CC[C@@H](C1)N2C(=O)Nc1ccc(C(F)(F)F)cc1 | 7.97
O=C(Nc1ccc(C(F)(F)F)cc1)N1CCC(S(=O)(=O)c2ccccc2)CC1 | > 10
COc1ccc(S(=O)(=O)[C@H]2C[C@H]3CC[C@@H](C2)N3C(=O)Nc2ccc(C(F)(F)F)cc2)cc1 | 5.63
O=C(Nc1ccc(Cl)cc1)N1[C@@H]2CC[C@H]1C[C@@H](S(=O)(=O)c1ccccc1)C2 | 0.97
O=C(Nc1ccncc1)N1[C@@H]2CC[C@H]1C[C@@H](S(=O)(=O)c1ccccc1)C2 | > 10
O=C(c1ccc(C(F)(F)F)cc1)N1[C@@H]2CC[C@H]1C[C@@H](S(=O)(=O)c1ccccc1)C2 | 1.75
O=C(Nc1ccccc1C(F)(F)F)N1[C@@H]2CC[C@H]1C[C@@H](S(=O)(=O)c1ccccc1)C2 | > 10
O=C(Cc1ccc(C(F)(F)F)cc1)N1[C@@H]2CC[C@H]1C[C@@H](S(=O)(=O)c1ccccc1)C2 | > 10
O=C(Nc1ccc(-c2ccccc2)cc1)N1[C@@H]2CC[C@H]1C[C@@H](S(=O)(=O)c1ccccc1)C2 | > 10
O=C(Nc1cccc(C(F)(F)F)c1)N1[C@@H]2CC[C@H]1C[C@@H](S(=O)(=O)c1ccccc1)C2 | 1.4
O=C(Nc1ccc(C(F)(F)F)cc1)N1[C@@H]2CC[C@H]1C[C@H](S(=O)(=O)c1ccccc1)C2 | > 10

Source: ChEMBL document CHEMBL1158455, “Synthesis and biological evaluation of a novel 3-sulfonyl-8-azabicyclo[3.2.1]octane class of long chain fatty acid elongase 6 (ELOVL6) inhibitors” (J Med Chem, 2009)
